The values that follow come from paper PMC2827632 (Biochemistry, 2010).

One test concerns the target Mtb Lpd R347S (Mycobacterium tuberculosis, UniProt P9WHH9, R347S).
The next test addresses Mtb Lpd A181V (Mycobacterium tuberculosis, UniProt P9WHH9, A181V). To be noted: 100 µM.

With `COc1ccc(C(=O)N2CCC3(CC2)C(=O)N(CC(=O)NCCc2ccc(Cl)cc2Cl)CN3c2ccccc2)c(OC)c1` [compound 5, N-(2,4-dichlorophenethyl)-2-(8-(2,4-dimethoxybenzoyl)-4-oxo-1-phenyl-1,3,8-triazaspiro[4.5]decan-3-yl)acetamide], the “Decrease in potency, R347S vs wild-type” value at Mtb Lpd R347S was “more than 100 fold”. Also, the “Inhibition of A181V Mtb Lpd” value at Mtb Lpd A181V turned out to be 10%.
